Results from patent publication US6946447B2, “MDM2-specific antisense oligonucleotides” (Hybridon, Inc., priority 1997, dated 2005).

Assays:
MDM2 [1] = assay: MDM2 protein level by immunoprecipitation/Western blot in oligonucleotide-treated cells; type: cell-based, human; settings: JAR cells, 18 h, Lipofectin 7 μg/ml, Western blot (FIG. 2A)
DNA synthesis = DNA synthesis by BrdU incorporation normalized to viable cells; type: cell-based; settings: cell lines that do not undergo significant apoptosis, 100 nM, 20 hr (FIG. 15)
p53 = assay: Nuclear p53 level by immunofluorescence staining with Pab1801; type: cell-based, human; settings: MCF-7 cells, 200 nM, 20 hr
JAR cells = assay: Induction of apoptosis / cell death in JAR cells; type: cell-based, human; settings: 400 nM, 30 h, Lipofectin
Experimental: JAR cells (ATCC) were grown in DMEM medium supplemented with 1% FBS according to standard cell culture techniques. Cells were then treated for 30 hours with growth medium containing 400 nM of either antisense oligonucleotide AS5 (SEQ ID NO:28) complementary to a portion of MDM2-encoding RNA or control oligonucleotide M4 (SEQ ID NO:5), and 7 μg/ml lipofectin (Gibco BRL Paisley, UK). Treated cells were then photographed using a phase contrast microscope.
JAR cells were treated for 24 hours as described in Example 6. Floating cells were harvested and chromosomal DNA was extracted according to standard techniques (Liu et al., Cell 86:147-157 (1996)). Purified DNA was then analyzed by agarose gel electrophoresis on a 2% agarose gel. Following electrophoresis the gel was stained with 0.5 μg/ml ethidium bromide.

MDM2 [2] = settings: JAR and SJSA cells, 100-400 nM, Lipofectin; cited from earlier work

Substance	inhibition of MDM2 expression (MDM2 [1])	rate of DNA synthesis (BrdU incorporation) (DNA synthesis)	nuclear p53 staining (p53)	cell death / apoptosis morphology (JAR cells)	decrease of MDM2 protein levels (MDM2 [2])
K: control oligonucleotide complementary to an ion channel, 5′-CAGAGCCTTCATCTTCCCAG-3′; SEQ ID NO:6 (chemistry not given here)	not observed	not observed	did not induce p53	–	–
M4: mismatch control oligonucleotide of AS5 with four mismatches, 5′-GATGACTCACACCATCATGG-3′; SEQ ID NO:5 (listed as DNA, chemistry not given here) [Oligo M4]	not observed	–	–	significantly less apoptosis	no effect
